Data from ChEMBL document CHEMBL1141478, “Lysianadioic acid, a carboxypeptidase B inhibitor from Lysiana subfalcata” (Bioorg Med Chem Lett, 2008).

Molecular target: T1, Carboxypeptidase B (Homo sapiens, UniProt P15086)
T1 sequence (P15086 whole entry): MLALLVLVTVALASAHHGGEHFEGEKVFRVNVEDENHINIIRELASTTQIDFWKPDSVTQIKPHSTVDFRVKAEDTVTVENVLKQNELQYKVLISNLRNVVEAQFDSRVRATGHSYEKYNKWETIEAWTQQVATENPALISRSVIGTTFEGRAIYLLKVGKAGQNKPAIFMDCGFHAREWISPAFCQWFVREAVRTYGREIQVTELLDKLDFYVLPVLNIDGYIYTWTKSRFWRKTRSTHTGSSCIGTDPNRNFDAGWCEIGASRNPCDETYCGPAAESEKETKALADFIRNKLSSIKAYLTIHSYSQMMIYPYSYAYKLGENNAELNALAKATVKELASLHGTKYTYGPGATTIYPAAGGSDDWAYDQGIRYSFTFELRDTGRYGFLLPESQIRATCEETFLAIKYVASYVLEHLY
Test: Inhibition of carboxypeptidase B

IC50: 360 nM
Compound: N=C(N)NCC/C=C(/CC(=O)O)C(=O)O [LYSIANADIOIC ACID]
